Reference: US7618975B2, “4-arylamino-quinazolines and analogs as activators of caspases and inducers of apoptosis and the use thereof” (Myriad Pharmaceuticals, Inc., priority 2003, dated 2009)

System: T-47D cells
Experiment: Caspase cascade activation (N-(Ac-DEVD)-N′-ethoxycarbonyl-R110 fluorogenic substrate) in T-47D cells; for Caspase activity Ratio T-47D (24 hr): test concentration or dose not given here; for Caspase activity Ratio T-47D (48 hr): test concentration or dose not given here
Format: cell-based, Human
Conditions: T-47D; for Ratio T-47D (48 hr): benzohydrazide analogs table; for Caspase activity Ratio T-47D (24 hr) / Caspase activity Ratio T-47D (48 hr): ratio of net RFU to control

| SMILES | Ratio T-47D (48 hr) | Caspase activity Ratio T-47D (24 hr) | Caspase activity Ratio T-47D (48 hr) |
| --- | --- | --- | --- |
| CN(NC(=O)c1ccccc1F)c1nc(C(F)(F)F)nc2ccccc12 [2-fluoro-N′-(2-(trifluoromethyl)quinazolin-4-yl)-N′-methylbenzohydrazide] | 13.7 |  |  |
| CSc1nc(N(C)NC(=O)c2ccc(Cl)cc2)c2ccccc2n1 [4-chloro-N′-methyl-N′-(2-(methylthio)quinazolin-4-yl)benzohydrazide] | 14.4 |  |  |
| CSc1nc(N(C)NC(=O)c2ccc(F)cc2)c2ccccc2n1 [4-fluoro-N′-methyl-N′-(2-(methylthio)quinazolin-4-yl)benzohydrazide] | 13.8 |  |  |
| CN(c1ccc(Cl)cc1)c1nc(Cl)nc2ccccc12 [Example 3, (2-Chloro-quinazolin-4-yl)-(4-chloro-phenyl)-methyl-amine] |  | 8.1 |  |
| CN(c1ccc([N+](=O)[O-])cc1)c1nc(Cl)nc2ccccc12 [Example 4, (2-Chloro-quinazolin-4-yl)-(4-nitro-phenyl)-methyl-amine] |  | 7.1 |  |
| CN(c1ccc(OC(F)(F)F)cc1)c1nc(Cl)nc2ccccc12 [Example 5, (2-Chloro-quinazolin-4-yl)-(4-trifluoromethoxy-phenyl)-methyl-amine] |  | 10.3 |  |
| Cc1ccc(Nc2nc(Cl)nc3ccccc23)cc1 [Example 8, (2-Chloro-quinazolin-4-yl)-(4-methyl-phenyl)-amine] |  | 1.0 |  |
| COc1ccc2c(ccn2-c2nc(Cl)nc3ccccc23)c1 [Example 9, 2-Chloro-4-(5-methoxyindol-1-yl)quinazoline] |  |  | 1.8 |
| COc1ccc(N(C)c2nc(NO)nc3ccccc23)cc1 [Example 10, N^2-Hydroxyl-N^4-(4-methoxy-phenyl)-N^4-methyl-quinazoline-2,4-diamine] |  |  | 12.8 |
| COc1ccc(N(C)c2nc(NCCO)nc3ccccc23)cc1 [Example 11, N^2-(2-Hydroxylethyl)-N^4-(4-methoxy-phenyl)-N^4-methyl-quinazoline-2,4-diamine] |  | 9.0 | 12.5 |
| COc1ccc(N(C)c2nc(NCCN3CCOCC3)nc3ccccc23)cc1 [Example 14, N^4-(4-Methoxy-phenyl)-N^4-methyl-N^2-(2-morpholin-4-yl-ethyl)-quinazoline-2,4-diamine] |  | 9.7 | 12.3 |
| COc1ccc(N(C)c2nc(N3CCOCC3)nc3ccccc23)cc1 [Example 15] |  | 5.7 | 11.5 |
| CC(C)=CCC/C(C)=C/CNc1nc(N(C)c2ccc(C)cc2)c2ccccc2n1 [Example 16, N^2-(3,7-Dimethyl-octa-2,6-dienyl)-N^4-(4-methyl-phenyl)-N^4-methyl-quinazoline-2,4-diamine] |  | 7.6 |  |
| COc1ccc(N(C)c2nc(N)nc3[nH]cnc23)cc1 [Example 17, N^6-(4-Methoxy-phenyl)-N-6-methyl-9H-purine-2,6-diamine] |  | 3.0 |  |
| CN(c1ccccc1)c1nc(N(C)c2ccccc2)c2ccccc2n1 [Example 18, N^2,N^4-Dimethyl-N^2,N^4-diphenyl-quinazoline-2,4-diamine] |  | 1.0 | 1.0 |
| CN(c1ccc(Cl)cc1)c1nc(N(C)c2ccc(Cl)cc2)c2ccccc2n1 [Example 19, N^2,N^4-Bis(4-chloro-phenyl)-N^2,N^4-dimethyl-quinazoline-2,4-diamine] |  | 1.0 | 1.0 |
| COc1ccc(Nc2nc(Cl)nc3cc(OC)c(OC)cc23)cc1 [Example 21, (2-Chloro-6,7-dimethoxyquinazolin-4-yl)-(4-methoxy-phenyl)-amine] |  | 1.0 | 1.0 |
| COc1cc2nc(Cl)nc(N(C)c3ccc(C)cc3)c2cc1OC [Example 22, (2-Chloro-6,7-dimethoxyquinazolin-4-yl)-(4-methyl-phenyl)-methyl-amine] |  | 1.0 | 1.0 |
| COc1ccc(N(C)c2nc(NCCN3CCOCC3)nc3cc(OC)c(OC)cc23)cc1 [Example 23, 6,7-Dimethoxy-N^4-(4-methoxy-phenyl)-N^4-methyl-N^2-(2-morpholin-4-yl-ethyl)-quinazoline-2,4-diamine] |  | 1.0 | 1.0 |
| COc1ccc(N(C)c2nc(NC/C=C(\C)CCC=C(C)C)nc3cc(OC)c(OC)cc23)cc1 [Example 24, 6,7-Dimethoxy-N^2-(3,7-dimethyl-octa-2,6-dienyl)-N^4-(4-methoxy-phenyl)-N^4-methyl-quinazoline-2,4-diamine] |  | 1.0 | 2.4 |
| COc1ccc(CN(C)c2nc(Cl)nc3ccccc23)cc1 [Example 26, (2-Chloro-quinazolin-4-yl)-(4-methoxy-benzyl)-methyl-amine] |  |  | 15.7 |
| Clc1nc(Nc2ccncc2)c2ccccc2n1 [Example 27, (2-Chloro-quinazolin-4-yl)-pyridin-4-yl-amine] |  |  | 1.0 |
| COc1ccc(Nc2nc(Cl)nc3ccccc23)cn1 [Example 28, (2-Chloro-quinazolin-4-yl)-(6-methoxy-pyridin-3-yl)-amine] |  | 1.0 | 1.0 |

| SMILES | Ratio T-47D (48 hr) | Caspase activity Ratio T-47D (24 hr) | Caspase activity Ratio T-47D (48 hr) |
| --- | --- | --- | --- |
| COc1cccc(Nc2nc(Cl)nc3ccccc23)c1OC [Example 29, (2-Chloro-quinazolin-4-yl)-(2,3-dimethoxy-phenyl)-amine] |  |  | 1.0 |
| COc1ccc(Nc2nc(Cl)nc3ccccc23)c(OC)c1 [Example 30, (2-Chloro-quinazolin-4-yl)-(2,4-dimethoxy-phenyl)-amine] |  |  | 1.0 |
| COc1cccc(Nc2nc(Cl)nc3ccccc23)c1 [Example 32, (2-Chloro-quinazolin-4-yl)-(3-methoxy-phenyl)-amine] |  |  | 1.0 |
| COc1ccccc1Nc1nc(Cl)nc2ccccc12 [Example 33, (2-Chloro-quinazolin-4-yl)-(2-methoxy-phenyl)-amine] |  |  | 1.0 |
| COc1ccc(N(c2nc(Cl)nc3ccccc23)C(C)C)cc1 [Example 37, (2-Chloro-quinazolin-4-yl)-isopropyl-(4-methoxy-phenyl)-amine] |  | 3.3 |  |
| COc1ccc(N(c2nc(Cl)nc3ccccc23)C2CCCCC2)cc1 [Example 38, (2-Chloro-quinazolin-4-yl)-cyclohexyl-(4-methoxy-phenyl)-amine] |  | 3.4 |  |
| COc1cccc(N(C)c2nc(Cl)nc3ccccc23)c1OC [Example 39, (2-Chloro-quinazolin-4-yl)-(2,3-dimethoxy-phenyl)-methyl-amine] |  | 4.5 |  |
| CCN(c1ccc(OC)cc1)c1nc(Cl)nc2ccccc12 [Example 40, (2-Chloro-quinazolin-4-yl)-ethyl-(4-methoxy-phenyl)-amine] |  |  | 6.1 |
| COc1ccc(N(c2nc(Cl)nc3ccccc23)C2CCCC2)cc1 [Example 45, (2-Chloro-quinazolin-4-yl)-cyclopentyl-(4-methoxy-phenyl)-amine] |  |  | 1.0 |
| COc1ccc(N(C)c2nc(NCCc3c[nH]cn3)nc3ccccc23)cc1 [Example 46, N^2-[2-(1H-Imidazol-4-yl)-ethyl]-N^4-(4-methoxy-phenyl)-N^4-methyl-quinazoline-2,4-diamine] |  | 12.8 | 9.4 |
| COc1ccc(N(C)c2nc(NCCCN(C)C)nc3ccccc23)cc1 [Example 47, N^2-(3-Dimethylamino-propyl)-N^4-(4-methoxy-phenyl)-N^4-methyl-quinazoline-2,4-diamine] |  |  | 11.5 |
| COc1ccc(N(C)c2nc(NCCO)nc3ccccc23)cn1 [Example 48, N^2-(2-Hydroxyethyl)-N^4-(6-methoxypyridin-3-yl)-N^4-methyl-quinazoline-2,4-diamine] |  |  | 12.5 |
| COc1ccc(N(C)c2nc(N)nc3ccccc23)cn1 [Example 49, N^4-(6-methoxypyridin-3-yl)-N^4-methyl-quinazoline-2,4-diamine] |  | 7.5 | 13.4 |
| COc1ccc(N(C)c2nc(NCCO)nc3cc(OC)c(OC)cc23)cc1 [Example 50, N^2-(2-Hydroxyethyl)-N^4-(4-methoxy-phenyl)-N^4-methyl-6,7-dimethoxyquinazoline-2,4-diamine] |  |  | 1.0 |
| COc1ccc(N(C)c2nc(Cl)nc3[nH]cnc23)cc1 [Example 51, (2-Chloro-9H-purin-6-yl)-(4-methoxy-phenyl)-methyl-amine] |  |  | 0.9 |
| COC(=O)c1ccc(N(C)c2nc(Cl)nc3ccccc23)cc1 [Example 52, (2-Chloro-quinazolin-4-yl)-(4-methylcarboxyphenyl)-methyl-amine] |  |  | 10.8 |
| CN(c1ccc(O)cc1)c1nc(Cl)nc2ccccc12 [Example 54, (2-Chloro-quinazolin-4-yl)-(4-hydroxyphenyl)-methylamine] |  |  | 12.5 |
| COc1ccc(N(C)c2nc(CF)nc3ccccc23)cc1 [Example 55, (2-Fluoromethyl-quinazolin-4-yl)-(4-methoxy-phenyl)-methyl-amine] |  |  | 9.0 |
| COc1ccc(N(C)c2nc(Cl)nc3ccc(C)cc23)cc1 [Example 56, (2-Chloro-6-methyl-quinazolin-4-yl)-(4-methoxy-phenyl)-methyl-amine] |  |  | 4.9 |
| COc1ccc(N(C)c2nc(Cl)nc3cc(C)ccc23)cc1 [Example 57, (2-Chloro-7-methyl-quinazolin-4-yl)-(4-methoxy-phenyl)-methyl-amine] |  |  | 6.2 |
| COc1ccc(N(C)c2nc(Cl)nc3cccc(C)c23)cc1 [Example 58, (2-Chloro-5-methyl-quinazolin-4-yl)-(4-methoxy-phenyl)-methyl-amine] |  |  | 10.8 |
| COc1ccc(N(C)c2nc(Cl)nc3c(C)cccc23)cc1 [Example 59, (2-Chloro-8-methyl-quinazolin-4-yl)-(4-methoxy-phenyl)-methyl-amine] |  |  | 7.1 |
